Where two headings read alike, the source gives them in different places.
Tests used:
AD3ΔScErg11p_Y140F = experiment: Broth microdilution MIC80, strain overexpressing Y140F enzyme; assay type: cell-based, Saccharomyces cerevisiae; settings: for fold lower susceptibility (MIC80) than strain overexpressing wild type ScErg11p6 × His: Y140F strain vs wild type strain
Method: (§1) Susceptibilities to triazole drugs of S. cerevisiae AD3Δ strains overexpressing Erg11p6 × His Y140F/H, but with the native ERG11 deleted, were measured as liquid MIC80 values (Supplementary Table S2). Overexpression of ScErg11p6 × His Y140F in the AD3ΔScErg11p_Y140F strain conferred 2-fold lower susceptibility to FLC than the strain overexpressing wild type ScErg11p6 × His i.e. MIC80 of 4.0 μg/ml and 2.1 μg/ml, respectively. The same mutant conferred a 1.7-fold reduction in susceptibility to VCZ. The MIC80 values were 0.42 μg/ml for the strain overexpressing ScErg11p6 × His Y140F and 0.25 μg/ml for the strain overexpressing wild type ScErg11p6 × His.
The S. cerevisiae AD2Δ host was used to create the strains used in this study. The strain was made by deletion of the HIS1 gene from the previously described ADΔ[49] strain. ADΔ and AD2Δ lack 7 major ATP-binding cassette transporters and the PDR3 gene. Both strains have the gain-of function pdr1–3 mutation in the PDR1 transcriptional regulator gene to provide constitutive overexpression of ScErg11p6 × His from the PDR5 locus. Yeast strains were grown on YPD medium: 1% (wt/vol) Bacto-yeast extract (BD Difco™ Laboratories Inc, Franklin Lakes, NJ), 2% (wt/vol) Bacto-peptone (BD Difco™) and 2% (wt/vol) glucose. Synthetic defined (SD) medium was used for selection of transformants. It contained 2% (wt/vol) glucose, 0.67% (wt/vol) yeast nitrogen base without amino acids (BD Difco™), 2% (wt/vol) agar (Oxoid Ltd., Hampshire, UK) and either uracil drop-out (Qbiogene, Irvine, CA) or histidine drop-out (Formedium™, Norfolk, UK) complete supplement mixture. Liquid SD media with complete supplement mixture (Formedium™) containing 10 mM MES and 20 mM HEPES buffered with TRIS to pH 6.8 was used for MIC80 determinations.
The susceptibilities of strains overexpressing wild type ScErg11p6 × His and ScErg11p6 × His Y140F/H to triazole drugs were measured as MIC80 values using broth microdilution assays. The MIC80s were defined as 80% growth inhibition compared to no drug controls because triazole drugs are fungistatic rather than fungicidal and can give trailing growth. MIC80s to FLC, ITC and VCZ were determined in 96-well microtiter plates using SD buffered to pH 6.8 instead of RPMI[50]. Cells were seeded at OD600nm = 0.005 (1.5 × 10^4 CFU) and the plates were incubated in 30 °C with shaking at 200 rpm for 48 hrs. Cell growth was assessed by measuring the OD600nm of wells using a BioTek Synergy™ 2 multi-mode plate reader (BioTek Instruments, Vermont, USA). Each MIC80 was determined using triplicate measurements for three clones of each strain in three separate experiments.

AD3ΔScErg11p_Y140H = experiment: Broth microdilution MIC80, strain overexpressing Y140H enzyme; assay type: cell-based; settings: Saccharomyces cerevisiae, 48 h, pH 6.8, 80% growth inhibition, SD medium pH 6.8, 30 °C, native ERG11 deleted
Method: as §1
The S. cerevisiae AD2Δ host was used to create the strains used in this study. The strain was made by deletion of the HIS1 gene from the previously described ADΔ[49] strain. […]
(§2) The susceptibilities of strains overexpressing wild type ScErg11p6 × His and ScErg11p6 × His Y140F/H to triazole drugs were measured as MIC80 values using broth microdilution assays. […] MIC80s to FLC, ITC and VCZ were determined in 96-well microtiter plates using SD buffered to pH 6.8 instead of RPMI[50]. […] Cell growth was assessed by measuring the OD600nm of wells using a BioTek Synergy™ 2 multi-mode plate reader (BioTek Instruments, Vermont, USA). Each MIC80 was determined using triplicate measurements for three clones of each strain in three separate experiments.

ScErg11p6 × His Y140F = biological target: T1, ScErg11p6 × His Y140F (Saccharomyces cerevisiae, UniProt P10614, Y140F); experiment: Type II difference spectra triazole binding to affinity purified Y140F mutant enzyme; settings: for Hill number / IC50 / Kd: Y140F enzyme 1 μM; for IC50 / Kd: Hill equation fit; for IC50: IC50 value is denoted as [Azole]0.5; for Kd: standard error in brackets; for ΔAmax of type II difference spectra: Y140F enzyme, Ni-NTA affinity purified
T1 construct: full-length Saccharomyces cerevisiae hexahistidine-tagged Erg11p (ScErg11p6 × His); made in house; host or cells: Saccharomyces cerevisiae strain AD3ΔScErg11_Y140F (native ERG11 deleted)
Method: (§3) Ni-NTA affinity purified mutant and wild type ScErg11p6 × His preparations (1 μM) were used to detect and quantitate type II azole binding. The spectral shift of the Soret peak from 417 nm to 421–424 nm in cytochrome P450s is also detected by the type II difference spectra. This change is associated with the replacement of a water molecule coordinated to the heme iron with the azole heterocycle. Type II difference spectra were obtained for FLC, VCZ, ITC and PCZ binding to both mutant enzymes. The binding of FLC is shown as an example (Fig. 2b). The type II difference spectra for the mutant enzymes were less intense than for the wild type enzyme. They gave 2–3-fold smaller differences in absorbance (ΔAmax), with peaks shifted from 428 nm for wild type enzyme to 424–425 nm for the mutant enzymes plus less well-defined troughs between 406–410 nm (Supplementary Table S3). […] These values indicate tight binding for each drug tested.
(§4) The concentration of functional cytochrome P450 for drug binding studies was determined using the carbon monoxide binding spectra according to the protocol described by Guengerich et al.[33]. Affinity purified ScErg11p6 × His used for spectroscopic assays was eluted using affinity purification buffer containing 50 mM L-histidine instead of imidazole. L-histidine was removed from the sample by washing the enzyme with solubilisation buffer containing 16 mM DM using 50 kDa molecular-weight cut-off Amicon Ultra-4 centrifugal filters (Merck Millipore Ltd, Cork, Ireland). The removal of L-histidine was checked by taking the absolute spectra of the sample using the Ultrospec™ 6300 pro UV/Visible spectrophotometer. The heme peak for wild type protein with no ligand was at ~417 nm. With L-histidine bound the peak was detected at ~420 nm. Enzyme concentration was determined by saturating the sample cuvette with CO gas prior to the addition of sodium dithionite. The reference cuvette containing the same amount of enzyme was treated with sodium dithionite only. The P450 concentration was determined by measuring the difference in absorbance between 446 and 490 nm and using the extinction coefficient of 91 mM^−1 cm^−1 [58]. Absorption spectra were recorded with a Cary 1 Bio UV-visible spectrophotometer using 10 mm path UV transparent plastic cuvettes (GE Healthcare Life Sciences, UK). Difference spectra were measured using 1 μM ScErg11p6 × His wild type or Y140F/H enzyme titrated with the triazole drugs ITC, PCZ, VCZ and FLC. Triazole drugs dissolved in DMSO were added to the sample cuvette, with the same amount of DMSO added to the reference cuvette. The total amount of DMSO was <2% of the total volume in the cuvette. Difference spectra between 350–500 nm were recorded and the trough-peak absorbance changes were used to plot binding curves. The dissociation constant Kd for type II binding of triazole drugs was calculated using GraphPad Prism 6 Software (GraphPad Prism, San Diego, CA) by applying the Hill equation using the formula ΔA = ΔAmax [Azole]^n/([Azole]^n + Kd^n), with ΔAmax being the maximum change in absorbance and [Azole] the azole concentration.

AfCYP51B [1] = biological target: AfCYP51B; set-up: method as in PMID 26459890; settings: type II binding, Ni-NTA affinity purified enzyme; cited from earlier work
[2] = system: C. albicans Erg11p (CaErg11p) Y132F/H; settings: Y132F/H mutations detected in clinical isolates; cited from earlier work
[3] = system: AD3ΔScErg11p (strain overexpressing wild type ScErg11p6 × His); experiment: Broth microdilution MIC80, strain overexpressing wild type enzyme; assay type: cell-based; settings: Saccharomyces cerevisiae, 48 h, pH 6.8
Method: as §1
The S. cerevisiae AD2Δ host was used to create the strains used in this study. The strain was made by deletion of the HIS1 gene from the previously described ADΔ[49] strain. ADΔ and AD2Δ lack 7 major ATP-binding cassette transporters and the PDR3 gene. Both strains have the gain-of function pdr1–3 mutation in the PDR1 transcriptional regulator gene to provide constitutive overexpression of ScErg11p6 × His from the PDR5 locus. Yeast strains were grown on YPD medium: 1% (wt/vol) Bacto-yeast extract (BD Difco™ Laboratories Inc, Franklin Lakes, NJ), 2% (wt/vol) Bacto-peptone (BD Difco™) and 2% (wt/vol) glucose. Synthetic defined (SD) medium was used for selection of transformants. […]
as §2

[4] = biological target: T2, wild type ScErg11p6 × His (Saccharomyces cerevisiae, UniProt P10614); experiment: Type II difference spectra triazole binding to affinity purified wild type enzyme; settings: for Hill number / IC50 / Kd: wild-type enzyme 1 μM; for IC50 / Kd: Hill equation fit; for IC50: IC50 value is denoted as [Azole]0.5; for Kd: standard error in brackets; for ΔAmax of type II difference spectra: wild-type enzyme, Ni-NTA affinity purified
T2 construct: full-length Saccharomyces cerevisiae hexahistidine-tagged Erg11p (ScErg11p6 × His); made in house; host or cells: Saccharomyces cerevisiae strain AD3ΔScErg11p (overexpression from the PDR5 locus, native ERG11 deleted)
Method: as §3, §4

ScErg11p6 × His Y140H = biological target: T3, ScErg11p6 × His Y140H (Saccharomyces cerevisiae, UniProt P10614, Y140H); experiment: Type II difference spectra triazole binding to affinity purified Y140H mutant enzyme; settings: for Hill number / IC50 / Kd: Y140H enzyme 1 μM; for IC50 / Kd: Hill equation fit; for IC50: IC50 value is denoted as [Azole]0.5; for Kd: standard error in brackets; for ΔAmax of type II difference spectra: Y140H enzyme, Ni-NTA affinity purified
T3 construct: full-length Saccharomyces cerevisiae hexahistidine-tagged Erg11p (ScErg11p6 × His); made in house; host or cells: Saccharomyces cerevisiae strain AD3ΔScErg11_Y140H (native ERG11 deleted)
Method: as §3, §4

AfCYP51A [5] = settings: cited from earlier work
AfCYP51B [6] = system: AfCYP51B; set-up: method as in PMID 26459890; settings: membrane preparations, enzyme heterologously expressed in E. coli; cited from earlier work
AfCYP51A [7] = biological target: AfCYP51A; set-up: method as in PMID 26459890; settings: type II binding, cited from earlier work
[8] = Saccharomyces cerevisiae, 48 h, pH 6.8

T1 sequence (P10614 whole entry Y140F): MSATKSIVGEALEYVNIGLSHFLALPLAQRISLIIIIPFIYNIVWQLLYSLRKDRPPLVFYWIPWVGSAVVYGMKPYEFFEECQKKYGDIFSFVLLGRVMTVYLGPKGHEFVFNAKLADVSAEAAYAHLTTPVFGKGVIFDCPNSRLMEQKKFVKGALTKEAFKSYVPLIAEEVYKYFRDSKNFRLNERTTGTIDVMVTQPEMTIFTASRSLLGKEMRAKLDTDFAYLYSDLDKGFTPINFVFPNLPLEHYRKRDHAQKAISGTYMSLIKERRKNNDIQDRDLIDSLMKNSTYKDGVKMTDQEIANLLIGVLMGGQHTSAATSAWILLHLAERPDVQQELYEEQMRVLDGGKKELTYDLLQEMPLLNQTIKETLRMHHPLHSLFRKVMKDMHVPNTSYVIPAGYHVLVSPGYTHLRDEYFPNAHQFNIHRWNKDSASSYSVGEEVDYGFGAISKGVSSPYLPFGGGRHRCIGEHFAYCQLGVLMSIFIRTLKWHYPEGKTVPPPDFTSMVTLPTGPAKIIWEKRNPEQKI
T3 sequence (P10614 whole entry Y140H): as the sequence (P10614 whole entry Y140F) above, with F140H counted along it
T2 sequence (P10614 whole entry): as the sequence (P10614 whole entry Y140F) above, with F140Y counted along it

Row | Compound | MIC80 (AD3ΔScErg11p_Y140F; [8]) [µg/mL] | fold lower susceptibility (MIC80) than strain overexpressing wild type ScErg11p6 × His (AD3ΔScErg11p_Y140F) [fold] | MIC80 (AD3ΔScErg11p_Y140H) [µg/mL] | Hill number (ScErg11p6 × His Y140F) | IC50 (ScErg11p6 × His Y140F) [nM] | Kd (ScErg11p6 × His Y140F) [nM] | ΔAmax of type II difference spectra (ScErg11p6 × His Y140F) | MIC80 [3] [µg/mL] | Hill number [4] | IC50 [4] [nM] | Kd [4] [nM] | ΔAmax of type II difference spectra [4] | Hill number (ScErg11p6 × His Y140H) | IC50 (ScErg11p6 × His Y140H) [nM] | Kd (ScErg11p6 × His Y140H) [nM] | ΔAmax of type II difference spectra (ScErg11p6 × His Y140H) | other results
1 | OC(Cn1cncn1)(Cn1cncn1)c1ccc(F)cc1F [FLC, fluconazole] | 4 | 2 | 3.4 | 1.86 | 330 | 130 | 0.023 | 2.1 | 3.0 | 430 | 74 | 0.048 | 1.68 | 270 | 110 | 0.016 | Kd (AfCYP51B [1]): 4000 nM; fold increase in resistance [2]: 4 fold; IC50 (AfCYP51A [5]; membrane preparations, enzyme heterologously expressed in E. coli): 17000 nM; fold higher IC50 for AfCYP51A compared to AfCYP51B (AfCYP51A [5]; reconstituted membrane assay): 34 fold; IC50 (AfCYP51B [6]): 500 nM; Kd (AfCYP51A [7]; Ni-NTA affinity purified enzyme): 12000 nM; fold difference in Kd values AfCYP51A vs AfCYP51B (AfCYP51A [7]; Ni-NTA affinity purified enzymes): 3 fold
2 | C[C@@H](c1ncncc1F)[C@](O)(Cn1cncn1)c1ccc(F)cc1F [VCZ, voriconazole] | 0.42 | 1.7 | 0.29 | 2.60 | 270 | 30 | 0.019 | 0.25 | 2.7 | 400 | 82 | 0.051 | 1.23 | 290 | 220 | 0.018 | 
3 | CCC(C)n1ncn(-c2ccc(N3CCN(c4ccc(OCC5COC(Cn6cncn6)(c6ccc(Cl)cc6Cl)O5)cc4)CC3)cc2)c1=O (stereo not drawn) [ITC, itraconazole] |  |  |  | 1.83 | 330 | 130 | 0.014 | 0.105 | 1.6 | 280 | 123 | 0.037 | 1.48 | 250 | 130 | 0.016 | MIC80 (AD3ΔScErg11p_Y140F; 80% growth inhibition, SD medium pH 6.8, 30 °C, 48 hrs, native ERG11 deleted): 0.09 µg/mL; MIC80 (AD3ΔScErg11p_Y140F; Saccharomyces cerevisiae, 80% growth inhibition, SD medium pH 6.8, 30 °C, 48 hrs, native ERG11 deleted, read-out: MIC80): 0.09 µg/mL
4 | CC[C@@H]([C@H](C)O)n1ncn(-c2ccc(N3CCN(c4ccc(OC[C@@H]5CO[C@@](Cn6cncn6)(c6ccc(F)cc6F)C5)cc4)CC3)cc2)c1=O [PCZ, posaconazole] |  |  |  | 1.57 | 290 | 150 | 0.016 |  | 2.2 | 320 | 78 | 0.031 | 1.57 | 230 | 100 | 0.016 | 

Source: article PMC4870556, “Triazole resistance mediated by mutations of a conserved active site tyrosine in fungal lanosterol 14α-demethylase” (Scientific Reports, 2016)
